The text below walks through data of patent US9718790B2, “Triazine derivative and pharmaceutical composition having an analgesic activity comprising the same” (SHIONOGI & CO., LTD., priority 2010, dated 2017).

The structures appear in SMILES notation. Values joined by “and” are separate entries in the source; they are usually repeats but may differ in a detail not shown here. Equal values may be shown once. Some results are limits rather than exact numbers.

Usually IC50 stands for the concentration that gives 50% inhibition.

For the first test, the target named is human P2X3 receptor (Homo sapiens (Human), UniProt P56373). In words: Evaluation of human P2X3 receptor inhibitory activity (Fluo-3 calcium fluorescence, FDSS 3000, ATP stimulation).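 Note: stimulus was 50 nM ATP with fluorescence followed for 3 min, and the response per well was peak post-ATP fluorescence divided by the reading at measurement start.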 It is filed as cell-based. Conditions: C6BU-1 cells stably expressing human P2X3 receptor.
Sequence of human P2X3 receptor (P56373 whole entry): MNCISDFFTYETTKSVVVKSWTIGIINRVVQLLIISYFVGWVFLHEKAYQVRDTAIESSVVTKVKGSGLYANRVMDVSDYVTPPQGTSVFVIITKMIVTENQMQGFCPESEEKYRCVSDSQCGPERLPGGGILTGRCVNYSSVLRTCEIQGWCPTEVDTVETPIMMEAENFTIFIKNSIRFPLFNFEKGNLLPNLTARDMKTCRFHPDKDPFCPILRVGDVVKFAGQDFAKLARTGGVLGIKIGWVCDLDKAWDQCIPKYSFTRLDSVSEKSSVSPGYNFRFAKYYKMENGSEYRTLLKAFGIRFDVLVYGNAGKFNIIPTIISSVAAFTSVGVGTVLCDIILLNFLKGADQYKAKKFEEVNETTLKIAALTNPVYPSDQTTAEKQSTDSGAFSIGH
Turning to `C=Cc1cc(/N=c2\[nH]c(=O)n(CCC(=O)O)c(=O)n2Cc2ccc(C)cc2)ccc1OC(C)C` [Compound I-1192], the IC50 was found to be 20 nM.

For the compound `CCOC(=O)CCn1c(=O)[nH]/c(=N\c2ccc(Oc3ccnc(O)c3)cc2)n(Cc2ccc(Cl)cc2)c1=O` [Compound I-1434], the half-maximal inhibitory concentration (IC50) was 2 nM.

In the case of `CCCc1ccc(/N=c2\[nH]c(=O)n(C[C@H](C)C(=O)OC)c(=O)n2Cc2ccc(Cl)cc2)cc1` [Compound I-0621], the IC50 is 58 nM.

Regarding `COC(=O)[C@@H](C)Cn1c(=O)[nH]/c(=N\c2ccc(OC)c(Cl)c2)n(Cc2ccc(Cl)cc2)c1=O` [Compound I-0702], the IC50 worked out at 107 nM.

For the compound `Cc1[nH]c2ccc(/N=c3\[nH]c(=O)n(CCOC4CCCCO4)c(=O)n3Cc3ccc(Cl)cc3)cc2c1C` (stereo not drawn) [Compound I-2038], the IC50 stood at 13 nM.

`CCn1c(=O)[nH]/c(=N\c2ccc(Oc3ncc(C(=O)O)o3)cc2)n(Cc2ccc(Cl)cc2)c1=O` [Compound I-2189]: the IC50 is 47 nM and 51 nM.

On to `COc1cc(/N=c2\[nH]c(=O)n(CCO)c(=O)n2Cc2ccc(Cl)cc2)ccc1OC(C)C` [Compound I-2006], for which the concentration for half-maximal inhibition (IC50) amounted to 36 nM.

For the compound `COc1cc(/N=c2\[nH]c(=O)n(CCOC3CCCCO3)c(=O)n2Cc2ccc(Cl)cc2)ccc1OC(C)C` (stereo not drawn) [Compound I-2005], the IC50 amounted to 3 nM.

As for `COCc1cc(/N=c2\[nH]c(=O)n(CCC(=O)O)c(=O)n2Cc2ccc(C)cc2)ccc1OC(C)C` [Compound I-1428], the IC50 was found to be 926 nM.

On to `CC(C)Oc1ccc(/N=c2\[nH]c(=O)n(C(C)(C)C(=O)O)c(=O)n2Cc2ccc(Cl)cc2)cc1Cl` [Compound I-0651], for which the IC50 was determined as 97 nM.

`Cc1ccc(Cn2c(=O)n(CCC(=O)O)c(=O)[nH]/c2=N\c2ccc(Cl)cc2)cc1` [Compound I-2045]: the IC50 worked out at 975 nM.

Turning to `Cc1ccc(Cn2c(=O)n([C@@H](C)[C@@H](C)C(=O)O)c(=O)[nH]/c2=N\c2ccc3nc(C)sc3c2)cc1` [Compound I-1470], the IC50 was determined as 10 nM.

On to `CCn1c(=O)[nH]/c(=N\c2ccc(Oc3ccnc(C(=O)O)c3)cc2)n(Cc2ccc(Cl)cn2)c1=O` [Compound I-2211], for which the IC50 was determined as 14 nM.

Consider `COc1ccc(/N=c2\[nH]c(=O)n(C[C@H](C)C(=O)O)c(=O)n2Cc2ccc(Cl)cc2)cc1C(F)(F)F` [Compound I-0797], for which the IC50 stood at 701 nM.

In the case of `Cc1ccc(Cn2c(=O)n(C[C@H](C)C(=O)O)c(=O)[nH]/c2=N\c2ccc(OC3CCCCC3)cc2)cc1` [Compound I-1222], the 50% inhibitory concentration (IC50) was found to be 17 nM.

Turning to `C[C@@H](Cn1c(=O)[nH]/c(=N\c2ccc3c(c2)CCO3)n(Cc2ccc(Cl)cc2)c1=O)C(=O)O` [Compound I-0773], the IC50 amounted to 790 nM.

`CC(C)Oc1ccc(/N=c2\[nH]c(OCC(=O)O)nc(=O)n2Cc2ccc(Cl)cc2)cc1F` [Compound I-0581]: the IC50 was 145 nM.

As to `CC(C)Oc1ccc(/N=c2\[nH]c(=O)n(CCC(=O)O)c(=O)n2CC2CCCCCCC2)cc1F` [Compound I-1916], the IC50 amounted to 995 nM.

Consider `O=C(O)CCn1c(=O)[nH]/c(=N\c2ccc(OC3CCC3)cc2)n(Cc2ccc(Cl)cc2)c1=O` [Compound I-1286], for which the IC50 was determined as 34 nM.

For `Cc1ccc(Cn2c(=O)n([C@@H](C)[C@@H](C)C(=O)O)c(=O)[nH]/c2=N\c2cccc(C(F)(F)F)c2)cc1` [Compound I-1335], the IC50 came out at 30 nM.

On to `CCn1c(=O)[nH]/c(=N\c2ccc(Oc3ccnc(C(=O)NC)c3)cc2)n(Cc2ccc(F)cc2)c1=O` [Compound I-2110], for which the half-maximal inhibitory concentration (IC50) turned out to be 12 nM.

Regarding `CCOC(=O)CCn1c(=O)[nH]/c(=N\c2ccc(CC(C)C)c(Cl)c2)n(Cc2ccc(C)cc2)c1=O` [Compound I-1426], the concentration for half-maximal inhibition (IC50) came out at 50 nM.

Consider `Cc1oc2ccc(/N=c3\[nH]c(=O)n(CC(CO)CO)c(=O)n3Cc3ccc(Cl)cc3)cc2c1C` [Compound I-2072], for which the IC50 amounted to 8 nM.

The test is the same for the next values; noted with them: C6BU-1 cells stably expressing human P2X3 receptor, Fluo-3 fluorescence, FDSS 3000.
For the compound `Cc1ccc(Cn2c(=O)n(CCC(=O)O)c(=O)[nH]/c2=N\c2ccc(OC(C)C)c(Br)c2)cc1` [Compound I-1178], the IC50 was found to be 17 nM.

For the compound `CCOc1ccc(/N=c2\[nH]c(=O)n([C@@H](C)[C@@H](C)C(=O)O)c(=O)n2Cc2ccc(Cl)cc2)cc1Cl` [Compound I-0922], the IC50 came to 29 nM.

For the compound `COC(=O)C(=O)Cn1c(=O)[nH]/c(=N\c2ccc(OC(C)C)c(C)c2)n(Cc2ccc(Cl)cc2)c1=O` [Compound I-0996, 1-(4-chlorobenzyl)-6-(3-mehyl-4-isopropoxyphenylimino)-3-(2-methoxycarbonyl-2-oxoethyl)-1,3,5-triazinane-2,4-dion], the concentration for half-maximal inhibition (IC50) is 32 nM.

For `COC(=O)[C@@H](C)Cn1c(=O)[nH]/c(=N\c2ccc(OC(F)(F)F)c(Cl)c2)n(Cc2ccc(C)cc2)c1=O` [Compound I-1027], the IC50 is 41 nM.

On to `Cc1nc2ccc(/N=c3\[nH]c(=O)n(CC(C)(CO)CO)c(=O)n3Cc3ccc(Cl)cc3)cc2s1` [Compound I-1643], for which the IC50 was 5 nM.

In the case of `CC(=O)NCCn1c(=O)[nH]/c(=N\c2ccc(CC(C)C)c(Cl)c2)n(Cc2ccc(Cl)cc2)c1=O` [Compound I-1611], the IC50 is 8 nM.

As to `COC(=O)[C@@H](C)Cn1c(=O)[nH]/c(=N\c2ccc(OC(C)C)c(OC)c2)n(Cc2ccc(C)cc2)c1=O` [Compound I-1129], the IC50 is 11 nM.

Turning to `C/C=C/c1ccc(Cn2c(=O)n(C[C@H](C)C(=O)OC)c(=O)[nH]/c2=N\c2ccc(OC(C)C)cc2)cc1` [Compound I-1141], the concentration for half-maximal inhibition (IC50) is 911 nM.

`CCc1oc2ccc(/N=c3\[nH]c(=O)n(C[C@H]4COC(C)(C)O4)c(=O)n3Cc3ccc(Cl)cc3)cc2c1C` [Compound I-1604]: the IC50 was 8 nM.

As for `Cc1ccc(Cn2c(=O)n([C@@H](C)[C@@H](C)C(=O)O)c(=O)[nH]/c2=N\c2ccc(OC(C)C)cc2)cc1` [Compound I-1082], the IC50 is 63 nM.

As to `Cc1cc(/N=c2\[nH]c(=O)n(CC(CO)CO)c(=O)n2Cc2ccc(Cl)cc2)ccc1OC(C)C` [Compound I-1905], the IC50 is 5 nM.

Consider `COC(=O)[C@@H](C)Cn1c(=O)[nH]/c(=N\c2ccc(CC(C)C)c(C)c2)n(Cc2ccc(Cl)cc2)c1=O` [Compound I-0947], for which the IC50 is 24 nM.

The test is the same for the next values; noted with them: human P2X3 receptor, Test Example 1.
On to `O=c1[nH]/c(=N\c2ccc(Oc3ccn[nH]3)cc2)n(Cc2ccc(Cl)cc2)c(=O)n1CCCO` [Compound I-2452], for which the IC50 turned out to be 36 nM.

Consider `CCn1c(=O)[nH]/c(=N\c2cccc(Oc3nccs3)c2)n(Cc2ccc(Cl)cc2)c1=O` [Compound I-2637], for which the IC50 is 177 nM.

In the case of `CCn1c(=O)[nH]/c(=N\c2ccc(Oc3ncc(C(=O)O)s3)cc2)n(C[C@H]2CC[C@H](C)CC2)c1=O` [Compound I-2347], the IC50 worked out at 5 nM.

`Cn1ccc(Oc2ccc(/N=c3\[nH]c(=O)n(CCCO)c(=O)n3Cc3ccc(Cl)cc3)cc2)n1` [Compound I-2413]: the IC50 was 36 nM.

As for `CCOC(=O)Cn1c(=O)[nH]/c(=N\c2ccc(Oc3nccs3)cc2)n(Cc2ccc(Cl)cc2)c1=O` [Compound I-2618], the IC50 is 7 nM.

For the compound `O=c1[nH]c(=O)n(Cc2ccc(Cl)cc2)/c(=N/c2ccc(Oc3cccc(F)n3)cc2)[nH]1` [Compound I-2503], the IC50 was 39 nM.

`CCC(=O)Nc1ccc(Oc2ccc(/N=c3\[nH]c(=O)n(CC)c(=O)n3Cc3ccc(Cl)cc3)cc2)cn1` [Compound I-2242]: the IC50 was < 4 nM.

Consider `Cc1ccc(Cn2c(=O)n(C)c(=O)[nH]/c2=N\c2ccc(Oc3cc(C(=O)O)ccn3)cc2)cc1` [Compound I-2343], for which the IC50 stood at 19 nM.

For the compound `CSc1n/c(=N\c2ccc(OC(C)C)cc2)n(Cc2ccc(Cl)cc2)c(=O)n1C(C)C` [Compound I-2301], the IC50 stood at 437 nM.

With `CCn1c(=O)[nH]/c(=N\c2ccc3nc(Cl)sc3c2)n(Cc2ccc(Cl)cc2)c1=O` [Compound I-2321], the IC50 was 11 nM.

Take `COC(=O)[C@@H](C)Cn1c(=O)[nH]/c(=N\c2ccc(Oc3ccccc3)nc2)n(Cc2ccc(C)cc2)c1=O` [Compound I-1515]: the half-maximal inhibitory concentration (IC50) was 157 nM.

In the case of `CCn1c(=O)[nH]/c(=N\c2ccc(Oc3cccc(CO)n3)cc2)n(Cc2ccc(Cl)cc2)c1=O` [Compound I-2639], the IC50 was 26 nM.

`CCn1c(=O)[nH]/c(=N\c2ccc(Oc3cc(C)nn3C)cc2)n(Cc2ccc(Cl)cc2)c1=O` [Compound I-2367]: the IC50 turned out to be 128 nM.

`Cc1ccc2cc(/N=c3\[nH]c(=O)n(C[C@H](C)C(=O)O)c(=O)n3Cc3ccc(Cl)cc3)ccc2n1` [Compound I-0864]: the IC50 was determined as 35 nM.

On to `CCn1c(=O)[nH]/c(=N\c2ccc(Oc3cccc(C(=O)O)n3)cc2)n(Cc2ccc(F)cc2)c1=O` [Compound I-2496], for which the IC50 was 30 nM.

As to `CC[C@@H](Cn1c(=O)[nH]/c(=N\c2ccc(OC(C)C)c(C)c2)n(Cc2ccc(C)cc2)c1=O)C(=O)OC` [Compound I-0884], the IC50 turned out to be 16 nM.

As to `NC(=O)NC(=O)Cn1c(=O)[nH]/c(=N\c2ccc(Oc3ccon3)cc2)n(Cc2ccc(Cl)cc2)c1=O` [Compound I-2694], the IC50 was 3 nM.

Turning to `COC(=O)[C@@H](C)Cn1c(=O)[nH]/c(=N\c2ccc(OCC(C)C)c(C)c2)n(Cc2ccc(Cl)cc2)c1=O` [Compound I-0831], the half-maximal inhibitory concentration (IC50) came out at 77 nM.

`CCn1c(=O)[nH]/c(=N\c2ccc(Oc3ncc(C(=O)OC)cn3)cc2)n(Cc2ccc(Cl)cc2)c1=O` [Compound I-2322]: the IC50 stood at 6 nM.

As for `C=C(C)c1ccc(/N=c2\[nH]c(=O)n(C[C@H](C)C(=O)O)c(=O)n2Cc2ccc(C)cc2)cc1Cl` [Compound I-1492], the IC50 came to 461 nM.

As to `CCOC(=O)CCn1c(=O)[nH]/c(=N\c2ccc3oc(CC)c(C)c3c2)n(Cc2ccc(Cl)cc2)c1=O` [Compound I-1503], the IC50 amounted to 12 nM.

In the case of `CCOC(=O)Cn1c(=O)[nH]/c(=N\c2ccc(Oc3cccnn3)cc2)n(Cc2ccc(Cl)cc2)c1=O` [Compound I-2658], the IC50 stood at 5 nM.

For `CNC(=O)Cn1c(=O)[nH]/c(=N\c2ccc(Oc3ccon3)c(F)c2)n(Cc2ccc(Cl)cc2)c1=O` [Compound I-2587], the IC50 worked out at 7 nM.

As for `CNC(=O)Cn1c(=O)[nH]/c(=N\c2ccc(Oc3cccnn3)cc2)n(Cc2ccc(Cl)cc2)c1=O` [Compound I-2690], the IC50 amounted to 18 nM.

With `COCCn1c(=O)[nH]/c(=N\c2ccc(Oc3cccc(C(=O)O)n3)cc2)n(Cc2ccc(Cl)cc2)c1=O` [Compound I-2548], the IC50 is 6 nM.
